This is an account of results in patent publication US20190262457A1, “NOVEL ALKYLATING AGENT” (CHIBA-PREFECTURE, priority 2016, published 2019).

Read-outs that look alike come from different tables or passages of the source.

The conditions of data set [1]: known log-P of calibration compounds; cited from earlier work.
Data set [2] concerns SW480 cells. Description: Cytotoxicity and IC50 comparison with CBI by WST assay, 48 hours. As to conditions: Homo sapiens, WST-8. Type of data set: cell-based, human. The protocol:
(§1) From the cell lines mentioned above, a large intestine cancer cell line SW480 was used as cells expressing PD-1, and a large intestine cancer cell line RKO was used as cells expressing PD-L1. An experiment was conducted to compare toxicity and IC50 between the PIP-drug conjugate compound CCC07-01 and the alkylating agent CBI used as a drug conjugate therein. The cells of each line were inoculated at 3000 cells/well to a 96-well microplate and cultured overnight. On the next day, the cells were treated with the PIP-CBI conjugate (CCC07-01) or CBI having a concentration of 0.1, 1, 10, 30, 100, 300, or 1000 nM (1 μM) for 48 hours. Then, WST-8 reagent was added to each well using Cell counting kit-8, and the mixture was reacted for 2 hours. Then, the cell count was calculated at a wavelength of 450 nm by the colorimetric analysis method using a microplate reader. The method for calculating the cell count involved: 1) obtaining the mean value of a medium alone, 2) subtracting the mean value of the medium from each well, 3) obtaining the mean value of DMSO, 4) dividing the medium mean value-subtracted value by the mean value of DMSO and then multiplying by 100, and 5) obtaining the mean value of each treatment group and a standard deviation, and preparing a graph. IC50 was calculated according to the following expression: IC50=10(LOG(A/B)×(50−C)/(D−C)+LOG(B) wherein A: a higher concentration of two concentrations sandwiching 50%, B: a lower concentration of two concentrations sandwiching 50%, C: the rate of inhibition at B, and D: the rate of inhibition at A.
In general terms: Formazan colour is commonly taken as a measure of viable cells.

For data set [3], the system named is RKO cells. The data set is described as above. As to conditions: Homo sapiens, WST-8. The data set is classed as cell-based, human. The protocol: as §1
Data set [4] relates to PD-L1 gene. As to the kind of experiment: Experiment to silence PD-L1 gene by real-time PCR, CCC07-03. Type of data set: cell-based, human. As to the method: (§2) RKO cells were cultured at 1×10^5 cells/well in a 6-well plate. On the next day, the cells were treated with 0, 5, 50, or 500 nM CCC07-03 for 6 hours, 24 hours, or 48 hours. The cells were recovered, and total RNA was extracted therefrom. The extraction employed AllPrep DNA/RNA Mini Kit (Qiagen N.V., CA). Next, cDNA was prepared by reverse transcription with the extracted RNA as a template using Super Script VILO™ Master Mix (Invitrogen Corp., CA) and subjected to qPCR. The qPCR conditions involved a holding stage at 50° C. for 2 min and 95° C. for 10 min, a cycling stage (40 cycles) at 95° C. for 15 sec and at 60° C. for 1 min, and a melt curve stage at 95° C. for 15 sec, at 60° C. for 1 min, at 95° C. for 30 sec, and at 60° C. for 15 sec. A relative expression level was quantified with GAPDH as a control. The PCR of PD-L1 employed the following primer set.
In general terms: Quantitative PCR measures a nucleic acid by following its amplification.

Data set [5] has as its system CTLA4 gene. Description: Experiment to silence CTLA4 gene by real-time PCR, CCC07-03. The data set is classed as cell-based, human. Conditions: A2058 cells. The protocol: as §2, with “A2058” for “RKO”, “GAPDH (primers: SEQ ID NOs: 21 and 22)” for “GAPDH”, “CTLA4” for “PD-L1”
Data set [6] concerns CTLA4 gene. Description: Study on CTLA4 gene silencing by negative control polyamide CCC07-04. As to conditions: A2058 cells. The data set is classed as cell-based, human. The protocol:
as §2, with “A2058” for “RKO”, “CCC07-04” for “CCC07-03”, “GAPDH (primers: SEQ ID NOs: 21 and 22)” for “GAPDH”, “CTLA4” for “PD-L1”

Data set [7] concerns mouse Pd-11 gene. As to the kind of experiment: Experiment to silence mouse Pd-11 gene by real-time PCR. Type of data set: cell-based. Conditions: B16F1 cells. As to the method: as §2, with “B16F1” for “RKO”, “100, 200, 300, 400,” for “5, 50,”, “CCC07-04” for “CCC07-03”, “(3-tubulin” for “GAPDH”, “Pd-11” for “PD-L1”
The conditions of data set [8]: known log-P of calibration compounds; cited from earlier work. The source holds these as a separate data set.
In data set [9] the test system is malignant melanoma. As to conditions: phase III clinical trial; cited from earlier work.
The mark [10] stands for this setting: 24 hours or later after administration.

With `N#Cc1ccccc1` [Benzonitrile], in [1], the logPow was 1.56.
One may read the IC50 as the concentration at which inhibition is half-maximal. A low value points to higher potency. `Oc1cc2c(c3ccccc13)C(CCl)CN2` (stereo not shown) [CBI, 1-chloromethyl-5-hydroxy-1,2-dihydro-3H-benzo [e]indole, reference compound]: the 50% inhibitory concentration (IC50) worked out at 10 nM in data set [2] and 3 nM in [3].
On to `CC(=O)Nc1cn(C)c(C(=O)Nc2cn(C)c(C(=O)Nc3cc(C(=O)NCCC(=O)Nc4cn(C)c(C(=O)Nc5cc(C(=O)Nc6cc(C(=O)NCCCC(=O)Nc7cn(C)c(C(=O)Nc8cn(C)c(C(=O)Nc9cc(C(=O)NCCC(=O)Nc%10cc(C(=O)Nc%11ccc%12[nH]c(C(=O)N%13CC(CCl)c%14c%13cc(O)c%13ccccc%14%13)cc%12c%11)n(C)c%10)n(C)c9)n8)n7)n(C)c6)n(C)c5)n4)n(C)c3)n2)n1` (stereo not shown) [CCC07-03], for which the “expression of PD-L1” value in data set [4] (RKO cells, 50 nM, 24 hours) is “statistically significantly decreased”; in [4] (RKO cells, 500 nM, 6 hours), “tended to be decreased”; in [4] (RKO cells, 5, 50, 500 nM, 48 hours) it was “decreased according to the concentration”. The “expression of CTLA-4” value is “markedly decreased” in data set [5] (500 nM, 24 hours) and “elevated” in [5] (6 hours).
Take `CC(=O)Nc1cn(C)c(C(=O)Nc2cn(C)c(C(=O)Nc3cc(C(=O)NCCC(=O)Nc4cc(C(=O)Nc5cn(C)c(C(=O)Nc6cn(C)c(C(=O)NCCCC(=O)Nc7cc(C(=O)Nc8cc(C(=O)Nc9cc(C(=O)NCCC(=O)Nc%10cn(C)c(C(=O)Nc%11ccc%12[nH]c(C(=O)N%13CC(CCl)c%14c%13cc(O)c%13ccccc%14%13)cc%12c%11)n%10)n(C)c9)n(C)c8)n(C)c7)n6)n5)n(C)c4)n(C)c3)n2)n1` (stereo not shown) [CCC07-04]: the “expression of CTLA-4” value in data set [6] (6 hours) is “elevated”. Besides, the entries for the “state of the cells (cell death suggested)” value in data set [6] (setting [10]) and in [7] (setting [10]) were “All the cells floated” and “All the mouse B16F1 cells floated”, respectively. The “expression of Pd-11” value in data set [7] (100-500 nM, 6 hours) is “statistically significantly decreased”.
On to `CCOC(C)=O` [Ethyl acetate], for which, in data set [1], the logPow was 0.73.
As to `c1ccc2[nH]ccc2c1` [Indole], the logPow in data set [1] and in [8] was 2.14 each time.
As to ipilimumab: anti-CTLA-4 antibody, the “objective response rate (ORR)” value in data set [9] is recorded as 11%.
